Patent EP3075724A1, “SOLID FORM OF AGOMELATINE” (F.I.S.- Fabbrica Italiana Sintetici S.p.A., priority 2015, dated 2016)

Tests used:
Kinetic dissolution test = type: physicochemical; conditions: 200 mg tablet, 100 mL saline solution, paddle 100 rpm, 37 °C
Procedure: The tests were performed in duplicate on 13 mm tablets containing 200 mg agomelatine (form I) or agomelatine pyruvic acid cocrystal, which were prepared on a Digital Hydraulic Press at a force of about 8 metric tons. The tablets were placed in 100 mL of saline solution in a paddle apparatus at 100 rpm and 37 °C ± 0.5 °C. A 3 mL sample was withdrawn from each vessel at fixed time points, filtered through a 0.45 µm filter (discarding the first 1 mL), analyzed by HPLC, and compared to a previously prepared reference standard calibration curve. Immediately after each sampling, the solutions in the vessels were replenished with 3 mL of saline.

[1] = Stability tests (chemical stability by HPLC); type: physicochemical
Procedure: Agomelatine pyruvic acid cocrystal according to Example 1 was subjected to stability tests for seven days at 25 °C, 60 % RH and 40 °C, 75 % RH, respectively.

[2] = cited from earlier work
[3] = 5 min, Ø (average of #1 and #2)
[4] = 15 min, Ø (average of #1 and #2)
[5] = 30 min, Ø (average of #1 and #2)
[6] = 45 min, Ø (average of #1 and #2)
[7] = 60 min, Ø (average of #1 and #2)
[8] = 90 min, Ø (average of #1 and #2)
[9] = 120 min, Ø (average of #1 and #2)
[10] = 180 min, Ø (average of #1 and #2)
[11] = 240 min, Ø (average of #1 and #2)
[12] = 300 min, Ø (average of #1 and #2)
[13] = 360 min, Ø (average of #1 and #2)
[14] = 420 min, Ø (average of #1 and #2)

COc1ccc2cccc(CCNC(C)=O)c2c1 [Form I, N-[2-(7-methoxynaphthalen-1-yl)ethyl]acetamide]
kinetic dissolution in aqueous medium (Kinetic dissolution test; 5 min, #1): 3.39 µg/mL
kinetic dissolution in aqueous medium (Kinetic dissolution test; 5 min, #2): 4.38 µg/mL
kinetic dissolution in aqueous medium (Kinetic dissolution test; [3]): 3.89 µg/mL
kinetic dissolution in aqueous medium (Kinetic dissolution test; 15 min, #1): 8.20 µg/mL
kinetic dissolution in aqueous medium (Kinetic dissolution test; 15 min, #2): 9.32 µg/mL
kinetic dissolution in aqueous medium (Kinetic dissolution test; [4]): 8.76 µg/mL
kinetic dissolution in aqueous medium (Kinetic dissolution test; 30 min, #1): 14.80 µg/mL
kinetic dissolution in aqueous medium (Kinetic dissolution test; 30 min, #2): 15.58 µg/mL
kinetic dissolution in aqueous medium (Kinetic dissolution test; [5]): 15.19 µg/mL
kinetic dissolution in aqueous medium (Kinetic dissolution test; 45 min, #1): 22.55 µg/mL
kinetic dissolution in aqueous medium (Kinetic dissolution test; 45 min, #2): 23.81 µg/mL
kinetic dissolution in aqueous medium (Kinetic dissolution test; [6]): 23.18 µg/mL
kinetic dissolution in aqueous medium (Kinetic dissolution test; 60 min, #1): 30.05 µg/mL
kinetic dissolution in aqueous medium (Kinetic dissolution test; 60 min, #2): 31.53 µg/mL
kinetic dissolution in aqueous medium (Kinetic dissolution test; [7]): 30.79 µg/mL
kinetic dissolution in aqueous medium (Kinetic dissolution test; 90 min, #1): 47.49 µg/mL
kinetic dissolution in aqueous medium (Kinetic dissolution test; 90 min, #2): 50.84 µg/mL
kinetic dissolution in aqueous medium (Kinetic dissolution test; [8]): 49.17 µg/mL
kinetic dissolution in aqueous medium (Kinetic dissolution test; 120 min, #1): 55.73 µg/mL
kinetic dissolution in aqueous medium (Kinetic dissolution test; 120 min, #2): 58.72 µg/mL
kinetic dissolution in aqueous medium (Kinetic dissolution test; [9]): 57.23 µg/mL
kinetic dissolution in aqueous medium (Kinetic dissolution test; 180 min, #1): 75.07 µg/mL
kinetic dissolution in aqueous medium (Kinetic dissolution test; 180 min, #2): 74.85 µg/mL
kinetic dissolution in aqueous medium (Kinetic dissolution test; [10]): 74.96 µg/mL
kinetic dissolution in aqueous medium (Kinetic dissolution test; 240 min, #1): 91.32 µg/mL
kinetic dissolution in aqueous medium (Kinetic dissolution test; 240 min, #2): 86.85 µg/mL
kinetic dissolution in aqueous medium (Kinetic dissolution test; [11]): 89.09 µg/mL
kinetic dissolution in aqueous medium (Kinetic dissolution test; 300 min, #1): 102.54 µg/mL
kinetic dissolution in aqueous medium (Kinetic dissolution test; 300 min, #2): 96.76 µg/mL
kinetic dissolution in aqueous medium (Kinetic dissolution test; [12]): 99.65 µg/mL
kinetic dissolution in aqueous medium (Kinetic dissolution test; 360 min, #1): 112.42 µg/mL
kinetic dissolution in aqueous medium (Kinetic dissolution test; 360 min, #2): 106.36 µg/mL
kinetic dissolution in aqueous medium (Kinetic dissolution test; [13]): 109.39 µg/mL
kinetic dissolution in aqueous medium (Kinetic dissolution test; 420 min, #1): 121.98 µg/mL
kinetic dissolution in aqueous medium (Kinetic dissolution test; 420 min, #2): 114.14 µg/mL
kinetic dissolution in aqueous medium (Kinetic dissolution test; [14]): 118.06 µg/mL

COc1ccc2cccc(CCNC(C)=O)c2c1 [Pyruvic Acid Cocrystal]
kinetic dissolution in aqueous medium (Kinetic dissolution test; 5 min, #1): 5.21 µg/mL
kinetic dissolution in aqueous medium (Kinetic dissolution test; 5 min, #2): 5.45 µg/mL
kinetic dissolution in aqueous medium (Kinetic dissolution test; [3]): 5.33 µg/mL
kinetic dissolution in aqueous medium (Kinetic dissolution test; 15 min, #1): 12.55 µg/mL
kinetic dissolution in aqueous medium (Kinetic dissolution test; 15 min, #2): 13.42 µg/mL
kinetic dissolution in aqueous medium (Kinetic dissolution test; [4]): 12.99 µg/mL
kinetic dissolution in aqueous medium (Kinetic dissolution test; 30 min, #1): 22.75 µg/mL
kinetic dissolution in aqueous medium (Kinetic dissolution test; 30 min, #2): 24.10 µg/mL
kinetic dissolution in aqueous medium (Kinetic dissolution test; [5]): 23.43 µg/mL
kinetic dissolution in aqueous medium (Kinetic dissolution test; 45 min, #1): 33.41 µg/mL
kinetic dissolution in aqueous medium (Kinetic dissolution test; 45 min, #2): 37.03 µg/mL
kinetic dissolution in aqueous medium (Kinetic dissolution test; [6]): 35.22 µg/mL
kinetic dissolution in aqueous medium (Kinetic dissolution test; 60 min, #1): 42.71 µg/mL
kinetic dissolution in aqueous medium (Kinetic dissolution test; 60 min, #2): 50.65 µg/mL
kinetic dissolution in aqueous medium (Kinetic dissolution test; [7]): 46.68 µg/mL
kinetic dissolution in aqueous medium (Kinetic dissolution test; 90 min, #1): 70.03 µg/mL
kinetic dissolution in aqueous medium (Kinetic dissolution test; 90 min, #2): 77.31 µg/mL
kinetic dissolution in aqueous medium (Kinetic dissolution test; [8]): 73.67 µg/mL
kinetic dissolution in aqueous medium (Kinetic dissolution test; 120 min, #1): 84.65 µg/mL
kinetic dissolution in aqueous medium (Kinetic dissolution test; 120 min, #2): 90.24 µg/mL
kinetic dissolution in aqueous medium (Kinetic dissolution test; [9]): 87.45 µg/mL
kinetic dissolution in aqueous medium (Kinetic dissolution test; 180 min, #1): 114.37 µg/mL
kinetic dissolution in aqueous medium (Kinetic dissolution test; 180 min, #2): 114.58 µg/mL
kinetic dissolution in aqueous medium (Kinetic dissolution test; [10]): 114.48 µg/mL
kinetic dissolution in aqueous medium (Kinetic dissolution test; 240 min, #1): 131.99 µg/mL
kinetic dissolution in aqueous medium (Kinetic dissolution test; 240 min, #2): 131.80 µg/mL
kinetic dissolution in aqueous medium (Kinetic dissolution test; [11]): 131.9 µg/mL
kinetic dissolution in aqueous medium (Kinetic dissolution test; 300 min, #1): 144.64 µg/mL
kinetic dissolution in aqueous medium (Kinetic dissolution test; 300 min, #2): 144.74 µg/mL
kinetic dissolution in aqueous medium (Kinetic dissolution test; [12]): 144.69 µg/mL
kinetic dissolution in aqueous medium (Kinetic dissolution test; 360 min, #1): 155.52 µg/mL
kinetic dissolution in aqueous medium (Kinetic dissolution test; 360 min, #2): 156.49 µg/mL
kinetic dissolution in aqueous medium (Kinetic dissolution test; [13]): 156.01 µg/mL
kinetic dissolution in aqueous medium (Kinetic dissolution test; 420 min, #1): 165.30 µg/mL
kinetic dissolution in aqueous medium (Kinetic dissolution test; 420 min, #2): 163.14 µg/mL
kinetic dissolution in aqueous medium (Kinetic dissolution test; [14]): 164.22 µg/mL
chemical stability as determined by HPLC ([1]; seven days at 25 °C, 60 % RH): excellent chemical stability
chemical stability as determined by HPLC ([1]; seven days at 40 °C, 75 % RH): excellent chemical stability

COc1ccc2cccc(CCNC(C)=O)c2c1 [agomelatine, N-[2-(7-methoxynaphthalen-1-yl)ethyl]acetamide]
solubility in various organic solvents ([2]; e.g. ethanol, methanol, methylene chloride, freely soluble): > 100 mg/mL
solubility in purified water ([2]; purified water, practically insoluble): < 0.1 mg/mL
